“Also recorded” adds a separate entry of the source.
Columns and labels:
[1] = system: supporting cells in organ of Corti explants; assay: Cochlear explant culture with Pa2g4/EBP1 inhibitors: EdU supporting cell proliferation; format: cell-based; settings: P1-P2 wild type mouse explants, 48-72 hours, WS3 0.01 μM or WS6 0.5 μM vs DMSO, gradient from apex to base
Procedure: (§1) Cochleae were isolated from postnatal day 1-day 2 wild type or Atoh1-nGFP mice (Lumpkin, Collisson et al. 2003). The organ of Corti was isolated from the otic capsule, and the nerve tissue and stria vascularis were removed. The organ of Corti was plated on a glass coverslip coated with a 1:10 mixture of Matrigel and DMEM/F12 to promote attachment. Cochlear explants were cultured in a serum-free 1:1 mixture of DMEM and F12, supplemented with Glutamax, N2, and B27. For the treated cochlea, small molecules were added to this culture medium, while the control cochlea was cultured with medium containing DMSO at the same concentration used in the treatments. To measure proliferation, explants were treated with EdU (10 μg/ml) along with the drug or DMSO. Drug-treated explants were cultured for 3 days then fixed in 4% PFA for 30 min.
To quantify WS3 and WS6-treated cochleae, the length of the sensory epithelium was measured using ImageJ software with the overall length determined from the hook to the apex in each sample. The number of myosin VIIa-positive cells or Edu positive cells in the supporting cell region were manually counted. The total number of cells was counted in each of four cochlear segments of 1200-1400 μm (apical, mid-apical, mid-basal, and basal), density (cells per 100 μm) was then calculated for each segment. […]

[2] = system: organ of Corti explants (hair cells / supporting cells); assay: Cochlear explant culture with Pa2g4/EBP1 inhibitors: MYO7+ / Atoh1-nGFP cell generation; format: cell-based, mouse; settings: for Increase in number of MYO7+ cells in the apex / Atoh1-nGFP-positive cells near OHCs: Atoh1-nGFP mouse cochlear explants; for Increase in number of MYO7+ cells in the apex: WS3 or WS6 treatment; for Atoh1-nGFP-positive cells near OHCs: gradient from apex to base; for MYO7+ cell counts at the apex region versus controls: P1-P2 mouse organ of Corti explants, 48-72 hours, WS3 0.01 μM or WS6 0.5 μM vs DMSO, mean per 100 μm, WS6 p=0.0043, WS3 p=0.0060; for Concentration at which effects were observed in culture: application in culture
Procedure: as §1
To quantify WS3 and WS6-treated cochleae, the length of the sensory epithelium was measured using ImageJ software with the overall length determined from the hook to the apex in each sample. The number of myosin VIIa-positive cells or Edu positive cells in the supporting cell region were manually counted. The total number of cells was counted in each of four cochlear segments of 1200-1400 μm (apical, mid-apical, mid-basal, and basal), density (cells per 100 μm) was then calculated for each segment. Statistical analyses were performed using Prism version 7.0 software; comparisons among groups were made by one-way ANOVA followed by Dunnett's multiple-comparisons test for comparing the mean of each group with the mean of a control group.
Our findings with the conditional ErbB2 activation animal models have shown that the constitutive activation of ERBB2 can result in SC expansion and ectopic MYO7+ cell generation. To further validate the crucial role of ERBB2 activation, inventors turned to small molecules to pharmacologically activate the ErbB pathway and determine their effect on SC expansion and HC differentiation. Two compounds, WS3 and WS6, were chosen, as these two analogues promoted cell proliferation in growth arrested cells such as […] and retinal pigment epithelial (RPE) cells (Shen, Tremblay et al. 2013, Swoboda, Elliott et al. 2013). […] To test the effect of these drugs on SCs, they were applied to cochlear explants derived from Atoh1-nGFP reporter mice (Lumpkin, Collisson et al. 2003). […] The number of MYO7+ cells in the apex was increased by 20 cells/100 μm (FIGS. 7A and 7B).

[3] = system: retinal pigment epithelium (RPE) cells; settings: Swoboda, Elliott et al. 2013; cited from earlier work
p-ERBB2 in MCF-7 cells = assay: Western blot of ERBB2 pathway activation with anti-p-ERBB2 antibody (Y1248); format: cell-based; settings: MCF-7 breast cancer cells, treated for 15 minutes
Procedure: FIGS. 8A, 8A′. […] FIG. 8A. Images of the apex region of the P1-P2 organ of Corti cultured for 48-72 hours in the presence of DMSO, WS3 (0.01 μM), or WS6 (0.5 μM). MYO7a (green), SOX2 (red) and EdU (blue) are shown. IHC, inner hair cells; OHC, outer hair cells (FIG. 8A′) Cross section of organ of Corti from FIG. 8A at the yellow line. Scale bar: 25 microns. FIG. 8B. […] FIG. 8C. Western blot analysis of ERBB2 pathway activation was conducted using anti-p-ERBB2 antibody (Y1248) in MCF-7 cells. Cells were treated with WS3 or WS6 for 15 minutes.
To determine if the drug treatments promoted SC proliferation, the compound were applied to cochlear explants from wild type mice at P1-P2 with EdU present to label the proliferating cells. […] To confirm that the effect of the drugs was mediated through ERBB2 activation, the ERBB2 phosphorylation was analyzed using the protein lysates from cochlear explant.

rodent diabetes model = settings: by promoting cell proliferation, Shen, Tremblay et al. 2013; cited from earlier work

Compound	EdU+ cells in the SOX2+ supporting cell region [1]	Increase in number of MYO7+ cells in the apex [2] [cells/100 μm]	Atoh1-nGFP-positive cells near OHCs [2]	MYO7+ cell counts at the apex region versus controls [2]	Concentration at which effects were observed in culture [2] [nM]	Expansion of retinal pigment epithelium (RPE) cells [3]	p-ERBB2 level (p-ERBB2 in MCF-7 cells)	β-cell mass (rodent diabetes model)
CN1CCN(Cc2ccc(NC(=O)Nc3ccc(Oc4cc(NC(=O)C5CC5)ncn4)cc3)cc2C(F)(F)F)CC1 [WS3]	A large number of EdU+ cells were observed; also recorded: significantly more SCs	20	additional Atoh1-nGFP-positive cells near OHCs were seen	Significantly more MYO7+ cells	10	expands retinal pigment epithelium (RPE) cells	elevated	
CN1CCN(Cc2ccc(NC(=O)Cc3ccc(Oc4cc(NC(=O)C5CC5)ncn4)cc3)cc2C(F)(F)F)CC1 [WS6]	A large number of EdU+ cells were observed; also recorded: significantly more SCs	20	additional Atoh1-nGFP-positive cells near OHCs were seen	Significantly more MYO7+ cells	500		elevated	increases p3-cell mass
